# Data published in patent US20010008770A1, “MICRO-ORGANISM WHICH CAN DESULPHURISE BENZOTHIOPHENES” (priority 1996, published 2001).
# “Also recorded” adds a separate entry of the source.
# What was measured:
# [1] = system: Rhodococcus sp. strain IGTS8; details: background statement; cited from earlier work
# [2] = system: Rhodococcus sp. strain 213E; assay: Growth studies of strain 213E in mineral salts medium with a sole sulphur source (biomass OD600, Gibbs phenol assay, GC-MS of metabolites); details: for Biomass at end log phase / Mean Generation time: strain 213E in FruRM
# Description: (§1) The final pH was 7.2 without titration. In some experiments another sugar replaced glucose as the carbon-source.
# (§2) For cultures of strain IGTS8, DST (200 μM, added from a stock solution, 40 mM in acetone) was included.
# (§3) Growth studies SRM (50 ml in a 100 ml Ehrlenmyer flask) was inoculated with a loopful of cells from a plate and incubated in an orbital shaker (250 rpm, 30° C.). At intervals as appropriate, an 3 ml sample was removed aseptically for measurement of biomass (as optical density at 600 mm, O.D.600) and for phenol production using the Gibbs Assay. The Gibbs Assay was carried out as follows: 1.5 ml of the sample was aliquoted into a Eppendorf tube, centrifuged (12000 rpm, 5 min) to remove the cells and frozen (−20° C.) until the end of the experiment. The samples were then thawed out and 1.0 ml of the supernatant was transferred to a 1 ml disposable spectrophotometer cuvette. 10 μl Gibbs reagent (10 mM in acetone) was then added to each cuvette. A blank solution (SRM +10 μg Gibbs reagent) was also prepared. The set was incubated overnight at 30° C., for full colour development, and the absorbance at 610 nm was measured.
# (§4) Cells were removed by centrifugation at 2800×g (3000 rpm) for 30 mins and the supernatant was titrated to pH 1 with 50% HCl and extracted three times with equal volumes of ethyl acetate. The ethyl acetate extracts ware pooled and dried by stirring for 1 h with anhydrous MgSO4 (100 g/l). The ethyl acetate was removed by rotory evaporation and the solids re-dissolved in 3.0 ml ethyl acetate.
# (§5) The GC was fitted with a Hewlett Packard capillary column HP-5MS, of length 30 m. The carrier gas was helium. Run conditions were as follows: Start temperature 40° C. held for 2 min, followed by 10° C./min ramp rate to final temperature 240° C. Total run time, 24 min. The mass scan range was 40 to 550 amu.
# (§6) The flasks were incubated in an orbital shaker (120 rpm, 30° C.). At intervals 3 ml was withdrawn from each culture under sterile conditions for measurement of biomass and phenol concentration, as described in methods. The cells were also Gram stained and examined under the microscope.
# [3] = system: Rhodococcus sp. strain 213F; assay: Growth studies of strain 213F in mineral salts medium with a sole sulphur source (biomass OD600, Gibbs phenol assay, GC-MS of metabolites); details: for Biomass at end log phase / Mean Generation time: strain 213F in FruRM; for Biomass at end log phase / Mean Generation time / mean generation time (MGT): sulphur source 200 μM; for mean generation time (MGT): strain 213F, (FruRM)
# Description: as §1, §3
# The flasks were incubated in an orbital shaker (120 rpm, 30° C.). At intervals 3 ml was withdrawn from each culture under sterile conditions for measurement of biomass and phenol concentration, as described in methods.
# [4] = system: Rhodococcus sp. strain IGTS8; assay: Growth studies of strain IGTS8 in mineral salts medium with a sole sulphur source (biomass OD600, Gibbs phenol assay, GC-MS of metabolites); details: for mean generation time (MGT): strain IGTS8, as stated in the text (FruRM)
# Description: as §1, §2, §3, §4, §5, §6
# strain ECRD-1 = details: Lee, Senius and Grossman, 1996; cited from earlier work
# strain N1-36 = details: Wang and Krawiec, 1996a; cited from earlier work
# [5] = strain IGTS8 in SRM, sulphur source 200 μM
SMILES,desulphurisation of compound by IGTS8 [1],desulphurisation of compound by strain 213E [2],desulphurisation of compound by strain 213F [3],Biomass at end log phase [3],Mean Generation time [3],mean generation time (MGT) [3],desulphurisation of compound by strain IGTS8 [4],mean generation time (MGT) ([4]; sulphur source 200 μM),"Mean Generation time [4, 5]",Mean Generation time ([2]; sulphur source 200 μM),further results
"c1ccc2c(c1)sc1ccccc12 [DBT, dibenzothiophene]",desulphurises,unable to desulphurise; also recorded: does not desulphurise,able to desulphurise; also recorded: appears to desulphurise,5.4 OD600,12.4 h,12 h,desulphurised,around 8 h,7.0 h,–,"growth with compound as sole sulphur source ([2]; strain 213E, compound substituted for BTH, FruRM, over a period of 100 h): no significant growth; Biomass at end log phase ([4]; strain IGTS8 in SRM, sulphur source 200 μM, 1 cm pathlength): 6.0 OD600"
"c1ccc2sccc2c1 [BTH, benzothiophene]",not,efficiently desulphurise,efficiently desulphurise; also recorded: able to desulphurise; also recorded: appears to desulphurise,6.0 OD600,8.0 h,around 8 h,unable to desulphurise; also recorded: does not desulplurise,–,–,9.0 h,"desulphurisation activity of strain ECRD-1 (strain ECRD-1): negligible; desulphurisation activity of strain N1-36 (strain N1-36): negligible; toxicity to strain 213E (effect on MGT) ([2]; concentration range <200 μM (growth curves 50-200 μM)): not toxic; Biomass at end log phase ([2]; sulphur source 50 μM): 2.3 OD600; Mean Generation time ([2]; sulphur source 50 μM): 8.0 h; Biomass at end log phase ([2]; sulphur source 100 μM): 3.0 OD600; Mean Generation time ([2]; sulphur source 100 μM): 8.6 h; Biomass at end log phase ([2]; sulphur source 200 μM): 4.2 OD600; growth with compound as sole sulphur source ([4]; strain IGTS8 in SRM, over a period of 100 h): no significant growth"
c1ccsc1 [thiophene],not,–,–,–,–,–,–,–,–,–,–
"O=S(=O)([O-])[O-].[Na+].[Na+] [sulphate, Sodium sulphate]",–,–,–,–,3.6 h,around 4 h,–,around 4 h,3.2 h,4.4 h,"mean generation time (MGT) ([2]; strain 213E, sulphur source 200 μM): around 4 h"
